# Ends that are not written are not given here.
# Tests used:
# CaMKII [1] = target: T1, CaMKII (Homo sapiens, UniProt Q9UQM7); experiment: Kinetics of CaMKII inhibition; type: biochemical
# CaMKII [2] = target: T1, CaMKII; settings: stimulated CaMKII activity; ref Coultrap and Bayer, 2011; cited from earlier work
# T1 sequence (Q9UQM7 whole entry): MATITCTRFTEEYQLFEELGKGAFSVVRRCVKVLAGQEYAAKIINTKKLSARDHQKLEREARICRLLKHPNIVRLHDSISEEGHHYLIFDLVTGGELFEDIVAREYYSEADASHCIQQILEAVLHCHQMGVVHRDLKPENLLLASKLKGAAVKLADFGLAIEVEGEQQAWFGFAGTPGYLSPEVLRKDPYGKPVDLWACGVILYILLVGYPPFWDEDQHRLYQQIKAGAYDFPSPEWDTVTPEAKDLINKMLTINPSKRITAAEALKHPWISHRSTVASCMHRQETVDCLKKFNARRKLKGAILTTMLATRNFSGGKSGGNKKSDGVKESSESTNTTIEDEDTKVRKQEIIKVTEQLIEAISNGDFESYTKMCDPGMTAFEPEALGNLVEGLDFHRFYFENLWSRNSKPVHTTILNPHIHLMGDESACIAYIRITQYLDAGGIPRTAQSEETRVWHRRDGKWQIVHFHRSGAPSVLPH
sequence,measurement,setting,value
KRAPKLGQIGRQKAVDIED [CN19o],α-factor compared to the parent compounds,CaMKII [1]; vs CN19 and CN19a2v,minimal effect on the α-factor
same,Ki compared to the parent compounds,CaMKII [1]; vs parent compounds CN19 and CN19a2v,dramatically improved
same,enhancement of potency,CaMKII [2],> 250 fold
same,enhancement of selectivity,CaMKII [2],> 250 fold

# Reference: paper PMC5540152 (Cell reports, 2017)
